Data taken from the OligoGym collection.
Only the 19 paired bases of each siRNA are shown; overhangs and chemistry are not given here.

These substances were tested against PPIB (assay: five studies, different assays). Details: siRNA.
Also: test concentration or dose not given here.

Substance	target inhibition [%]
sense UGAGAACUUCAAACUGAAG / antisense CUUCAGUUUGAAGUUCUCA	41.7
sense UGGCACAGGAGGAAAGAGC / antisense GCUCUUUCCUCCUGUGCCA	55.9
sense UGUAAUCAAGGACUUCAUG / antisense CAUGAAGUCCUUGAUUACA	63.9
sense UUAGCUACAGGAGAGAAAG / antisense CUUUCUCUCCUGUAGCUAA	30.7
sense UUCACCAGGGGAGAUGGCA / antisense UGCCAUCUCCCCUGGUGAA	17.6
sense UUCCAUCGUGUAAUCAAGG / antisense CCUUGAUUACACGAUGGAA	45.9
sense UUCCCCGAUGAGAACUUCA / antisense UGAAGUUCUCAUCGGGGAA	83.8
sense UUGGCUACAAAAACAGCAA / antisense UUGCUGUUUUUGUAGCCAA	68
sense UUGUGGCCUUAGCUACAGG / antisense CCUGUAGCUAAGGCCACAA	16
sense UUUUGUGGCCUUAGCUACA / antisense UGUAGCUAAGGCCACAAAA	52

Each substance was assayed against ICAM1 (assay: five studies, different assays). Details: siRNA.

Substance	target inhibition [%]
sense AACACACAAGCCACGCCUC / antisense GAGGCGUGGCUUGUGUGUU	1
sense AAGGAGUUGCUCCUGCCUG / antisense CAGGCAGGAGCAACUCCUU	-15
sense AAGUCUAGCCUGAUGAGAG / antisense CUCUCAUCAGGCUAGACUU	50
sense ACACUGCAGGAGAGUGCCU / antisense AGGCACUCUCCUGCAGUGU	0
sense ACCUCUGUCGGGCCAGGAG / antisense CUCCUGGCCCGACAGAGGU	5
sense ACGGUGCUGGUGAGGAGAG / antisense CUCUCCUCACCAGCACCGU	-20
sense AGCUCCUGCUGAAGGCCAC / antisense GUGGCCUUCAGCAGGAGCU	10
sense AGUCGACGCUGAGCUCCUC / antisense GAGGAGCUCAGCGUCGACU	0
sense AGUGAUCCUCCCACCUCAG / antisense CUGAGGUGGGAGGAUCACU	45
sense CAUUGGCCAACCUGCCUUU / antisense AAAGGCAGGUUGGCCAAUG	28

Each substance was assayed against LMNA (assay: five studies, different assays). Details: siRNA.

Substance	target inhibition [%]
sense AAGAAGGAGCUGGAGAAGA / antisense UCUUCUCCAGCUCCUUCUU	87
sense AAGGAGCUGGAGAAGACUU / antisense AAGUCUUCUCCAGCUCCUU	91
sense AGAAGGAGCUGGAGAAGAC / antisense GUCUUCUCCAGCUCCUUCU	96
sense AGCAGUAUAAGAAGGAGCU / antisense AGCUCCUUCUUAUACUGCU	84
sense AGCGCAAACUGGAGUCCAC / antisense GUGGACUCCAGUUUGCGCU	98
sense AGCUGGAGAAGACUUAUUC / antisense GAAUAAGUCUUCUCCAGCU	96
sense AGGAGCUGGAGAAGACUUA / antisense UAAGUCUUCUCCAGCUCCU	98
sense AGUAUAAGAAGGAGCUGGA / antisense UCCAGCUCCUUCUUAUACU	95
sense AUAAGAAGGAGCUGGAGAA / antisense UUCUCCAGCUCCUUCUUAU	96
sense CAAGUCCAAUGAGGACCAG / antisense CUGGUCCUCAUUGGACUUG	79
sense CAGUAUAAGAAGGAGCUGG / antisense CCAGCUCCUUCUUAUACUG	95
sense CCCGCUCCUACCUCCUGGG / antisense CCCAGGAGGUAGGAGCGGG	71
sense CUGCUCUCAGUGAGAAGCG / antisense CGCUUCUCACUGAGAGCAG	88
sense CUGGACUUCCAGAAGAACA / antisense UGUUCUUCUGGAAGUCCAG	98
sense CUGGAGAAGACUUAUUCUG / antisense CAGAAUAAGUCUUCUCCAG	98
sense GAAGGAGCUGGAGAAGACU / antisense AGUCUUCUCCAGCUCCUUC	93
sense GAAGUGGCCAUGCGCAAGC / antisense GCUUGCGCAUGGCCACUUC	70
sense GAGAAGACUUAUUCUGCCA / antisense UGGCAGAAUAAGUCUUCUC	97
sense GAGCUGGAGAAGACUUAUU / antisense AAUAAGUCUUCUCCAGCUC	96
sense GAGGUGGUCAGCCGCGAGG / antisense CCUCGCGGCUGACCACCUC	80
sense GCAGUAUAAGAAGGAGCUG / antisense CAGCUCCUUCUUAUACUGC	82
sense GCCAAAGAAAAAUAACCCU / antisense AGGGUUAUUUUUCUUUGGC	96

Substance	target inhibition [%]
sense GCCUGCGUACGGCUCUCAU / antisense AUGAGAGCCGUACGCAGGC	97
sense GCUGGACAAUGCCAGGCAG / antisense CUGCCUGGCAUUGUCCAGC	84
sense GCUGGAGAAGACUUAUUCU / antisense AGAAUAAGUCUUCUCCAGC	96
sense GCUGGCCCUGGACAUGGAG / antisense CUCCAUGUCCAGGGCCAGC	79
sense GCUUCGAGACCUGGAGGAC / antisense GUCCUCCAGGUCUCGAAGC	96
sense GGACCUGCAGGAGCUCAAU / antisense AUUGAGCUCCUGCAGGUCC	45
sense GGAGAAGACUUAUUCUGCC / antisense GGCAGAAUAAGUCUUCUCC	95
sense GGAGCUGGAGAAGACUUAU / antisense AUAAGUCUUCUCCAGCUCC	95
sense GGAGGACCUGCAGGAGCUC / antisense GAGCUCCUGCAGGUCCUCC	83
sense GGCACAGAACACCUGGGGC / antisense GCCCCAGGUGUUCUGUGCC	86
sense GGCAUCUGCCAGCGGCUCA / antisense UGAGCCGCUGGCAGAUGCC	92
sense GGUGGUGACGAUCUGGGCU / antisense AGCCCAGAUCGUCACCACC	92
sense GUAUAAGAAGGAGCUGGAG / antisense CUCCAGCUCCUUCUUAUAC	96
sense GUGGCCAUGCGCAAGCUGG / antisense CCAGCUUGCGCAUGGCCAC	74
sense GUUAUUUUCUACAGUGGUU / antisense AACCACUGUAGAAAAUAAC	98
sense UAACCCUUUGGUUUUUUUC / antisense GAAAAAAACCAAAGGGUUA	52
sense UAAGAAGGAGCUGGAGAAG / antisense CUUCUCCAGCUCCUUCUUA	67
sense UAUAAGAAGGAGCUGGAGA / antisense UCUCCAGCUCCUUCUUAUA	90
sense UCUGGUCACCCGCUCCUAC / antisense GUAGGAGCGGGUGACCAGA	83
sense UGCAGCAGCAGCUGGACGA / antisense UCGUCCAGCUGCUGCUGCA	92
sense UGCCAGGCAGUCUGCUGAG / antisense CUCAGCAGACUGCCUGGCA	81
sense UGGAGAAGACUUAUUCUGC / antisense GCAGAAUAAGUCUUCUCCA	81
